The source made the active and inactive calls. No cut-off for these calls is given here.

For orientation: IC50 means the midpoint of a concentration-inhibition curve. The low end stands for higher potency, the high end for lower potency.

In the first assay the test system is T47D. Description: Cell viability of human T47D cells by trypan blue exclusion assay. It is filed as functional, cell-based.
As for `COc1cc(NCCC(=N)N)c2nccc(C)c2c1Oc1cccc(C(F)(F)F)c1`, the IC50 came to 519 nM.
Regarding `COc1cc(NCCC#N)c2nccc(C)c2c1Oc1cccc(C(F)(F)F)c1`, inhibition was half-maximal at 378 nM (IC50).
The same measure, in the same setting: to `COc1cc(NCc2ccco2)c2nccc(C)c2c1Oc1cccc(C(F)(F)F)c1` belongs 15.6 nM; to `COc1cc(NCCCN)c2nccc(C)c2c1Oc1cccc(C(F)(F)F)c1`, 119 nM; to `CCOC(=N)CCNc1cc(OC)c(Oc2cccc(C(F)(F)F)c2)c2c(C)ccnc12`, 1970 nM.
In turn, `COc1cc(NCc2cccs2)c2nccc(C)c2c1Oc1cccc(C(F)(F)F)c1` showed an IC50 of 3730 nM.
As for `COc1cc(NCc2cnc[nH]2)c2nccc(C)c2c1Oc1cccc(C(F)(F)F)c1`, the half-inhibitory concentration (IC50) was found to be 1280 nM.

A further assay deals with T47D. Description: Cell viability of human T47D cells at 10 uM by trypan blue exclusion assay. It is filed as functional, cell-based.
As for `COc1cc(N)c2nccc(C)c2c1Oc1cccc(C(F)(F)F)c1`, the result was inactive.

The values above are taken from ChEMBL document CHEMBL1150339, “Synthesis and anti-breast cancer activities of substituted quinolines” (Bioorg Med Chem Lett, 2008).
